Results published in patent US9919998B2, “Antibacterial agents: Nα-aroyl-N-aryl-phenylalaninamides” (priority 2014, dated 2018).
Converted amounts (≈) assume the structure as drawn. “And” between values parts separate entries of the source, which are not always exact repeats. Identical values can stand only once. Like-named read-outs stand apart in the source and are kept apart here.

Experiments:
[1] = test system: rifampin-resistant mutants, derivatives of M. smegmatis ATCC19420; test: MICs in rifampin-resistant mutants (cross-resistance levels); type: cell-based, Mycobacterium smegmatis
Text: (§1) MICs in Mycobacterium smegmatis ATCC 19420 and Mycobacterium smegmatis ATCC 19420 derivatives were quantified using broth microdilution assays as described [Clinical and Laboratory Standards Institute (CLSI/NCCLS) (2009) Methods for Dilution Antimicrobial Susceptibility Tests for Bacteria That Grow Aerobically; Approved Standard, Eighth Edition. CLIS Document M07-A8 (CLIS, Wayne Pa.)].

[2] = test system: Mycobacterium smegmatis ATCC 19420; test: Spontaneous resistance rate, fluctuation assays; type: cell-based; conditions: 96 h fluctuation assays, M. smegmatis ATCC19420
Protocol: Resistance rates were determined using fluctuation assays [Luria, S., Delbrück, M. (1943) Genetics 28, 491-511.]. […] (at least 3 independent determinations for each concentration of each test compound). Resistance rates and 95% confidence intervals were calculated using the Ma-Sandri-Sarkar Maximum Likelihood Estimator (MSS-MLE [Ma, W., Sandri, GvH., Sarkar, S. (1992.) J. Appl. Probab. 29, 255-267; Sarkar, S., Ma, W., Sandri, GvH. (1992) Genetica 85, 173-179]) as implemented on the Fluctuation Analysis Calculator (FALCOR; www.keshavsingh.org/protocols/FALCOR.html [Hall, B., Ma, C., Liang, P., Singh, K (2009) Bioinformatics 25, 1564-1565]). Sampling correction was performed as in [Stewart, F., Gordon, D., Levin, B. (1990) Genetics 124, 175-185; Jones, M. (1993) Mutat. Res. 292, 187-189].

[3] = test system: Mycobacterium tuberculosis H37Rv; test: Microplate Alamar Blue assay (MABA) MIC, M. tuberculosis; type: cell-based
Text: (§2) Minimal inhibitory concentrations (MICs) in Mycobacterium tuberculosis H37Rv and Mycobacterium avium ATCC 25291 were quantified using microplate Alamar Blue assays as described (MABA; [Collins, L. & Franzblau, S. (1997) Microplate Alamar Blue assay versus BACTEC 460 system for high-throughput screening of compounds against Mycobacterium tuberculosis and Mycobacterium avium. Antimicrob. Agents Chemother. 41, 1004-1009]).

[4] = test system: AAP1-resistant mutants, derivatives of M. smegmatis ATCC19420; test: MICs in AAP1-resistant mutants (resistance and cross-resistance levels); type: cell-based, Mycobacterium smegmatis; conditions: for cross-resistance of AAP1-resistant mutants to the compound: MICs in AAP1-resistant mutants
[5] = target: Mycobacterium tuberculosis RNA polymerase (Mycobacterium tuberculosis, UniProt P9WGY7+P9WGY9); test: Run-off transcription assay with Mycobacterium tuberculosis RNA polymerase (radiochemical); type: biochemical
Chain of Mycobacterium tuberculosis RNA polymerase (P9WGZ1 whole entry, the tested form may be a part): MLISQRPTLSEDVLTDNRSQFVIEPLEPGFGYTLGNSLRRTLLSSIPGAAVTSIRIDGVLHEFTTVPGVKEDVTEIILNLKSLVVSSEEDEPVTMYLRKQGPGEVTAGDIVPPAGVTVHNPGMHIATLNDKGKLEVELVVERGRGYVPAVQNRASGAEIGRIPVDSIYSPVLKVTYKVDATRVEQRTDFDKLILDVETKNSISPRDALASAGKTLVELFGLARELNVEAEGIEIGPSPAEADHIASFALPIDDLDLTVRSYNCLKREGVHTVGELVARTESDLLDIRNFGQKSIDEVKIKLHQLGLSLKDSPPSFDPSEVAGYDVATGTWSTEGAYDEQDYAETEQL
Chain of Mycobacterium tuberculosis RNA polymerase (P9WGY5 whole entry, further chain, the tested form may be a part): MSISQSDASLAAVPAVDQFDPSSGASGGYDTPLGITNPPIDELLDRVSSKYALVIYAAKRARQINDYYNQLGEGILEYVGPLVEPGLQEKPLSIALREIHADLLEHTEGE
Chain of Mycobacterium tuberculosis RNA polymerase (P9WGY9 whole entry, the tested form may be a part): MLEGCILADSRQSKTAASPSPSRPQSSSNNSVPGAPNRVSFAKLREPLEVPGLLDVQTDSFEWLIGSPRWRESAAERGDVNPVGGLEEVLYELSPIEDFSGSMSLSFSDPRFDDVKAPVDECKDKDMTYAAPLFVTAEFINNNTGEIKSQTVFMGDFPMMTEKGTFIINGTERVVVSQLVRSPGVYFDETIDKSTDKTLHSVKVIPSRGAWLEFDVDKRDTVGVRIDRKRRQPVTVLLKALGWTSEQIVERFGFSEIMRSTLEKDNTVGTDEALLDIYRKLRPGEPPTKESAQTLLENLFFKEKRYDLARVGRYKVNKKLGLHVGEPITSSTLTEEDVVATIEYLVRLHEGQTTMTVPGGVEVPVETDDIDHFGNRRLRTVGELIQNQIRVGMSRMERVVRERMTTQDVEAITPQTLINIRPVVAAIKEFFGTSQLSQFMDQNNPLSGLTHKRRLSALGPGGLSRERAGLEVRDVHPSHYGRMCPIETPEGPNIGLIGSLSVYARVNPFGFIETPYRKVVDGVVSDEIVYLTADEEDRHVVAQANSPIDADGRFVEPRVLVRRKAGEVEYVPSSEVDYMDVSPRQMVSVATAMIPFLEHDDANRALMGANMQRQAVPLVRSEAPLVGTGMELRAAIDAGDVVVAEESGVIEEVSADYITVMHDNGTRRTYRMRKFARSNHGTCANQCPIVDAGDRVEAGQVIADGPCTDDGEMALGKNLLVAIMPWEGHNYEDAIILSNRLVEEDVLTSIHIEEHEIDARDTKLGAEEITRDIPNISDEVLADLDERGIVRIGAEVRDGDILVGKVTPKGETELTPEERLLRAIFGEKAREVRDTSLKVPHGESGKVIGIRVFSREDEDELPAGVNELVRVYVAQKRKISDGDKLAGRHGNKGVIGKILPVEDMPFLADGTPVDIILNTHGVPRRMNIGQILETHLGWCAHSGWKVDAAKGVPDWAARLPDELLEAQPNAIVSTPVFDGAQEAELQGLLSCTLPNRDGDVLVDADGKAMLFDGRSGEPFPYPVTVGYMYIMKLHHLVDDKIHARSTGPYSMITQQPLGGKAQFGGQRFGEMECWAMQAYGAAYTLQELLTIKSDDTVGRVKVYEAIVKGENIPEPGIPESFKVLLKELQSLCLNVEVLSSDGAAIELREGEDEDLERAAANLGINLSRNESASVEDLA
Chain of Mycobacterium tuberculosis RNA polymerase (P9WGI1 whole entry, further chain, the tested form may be a part): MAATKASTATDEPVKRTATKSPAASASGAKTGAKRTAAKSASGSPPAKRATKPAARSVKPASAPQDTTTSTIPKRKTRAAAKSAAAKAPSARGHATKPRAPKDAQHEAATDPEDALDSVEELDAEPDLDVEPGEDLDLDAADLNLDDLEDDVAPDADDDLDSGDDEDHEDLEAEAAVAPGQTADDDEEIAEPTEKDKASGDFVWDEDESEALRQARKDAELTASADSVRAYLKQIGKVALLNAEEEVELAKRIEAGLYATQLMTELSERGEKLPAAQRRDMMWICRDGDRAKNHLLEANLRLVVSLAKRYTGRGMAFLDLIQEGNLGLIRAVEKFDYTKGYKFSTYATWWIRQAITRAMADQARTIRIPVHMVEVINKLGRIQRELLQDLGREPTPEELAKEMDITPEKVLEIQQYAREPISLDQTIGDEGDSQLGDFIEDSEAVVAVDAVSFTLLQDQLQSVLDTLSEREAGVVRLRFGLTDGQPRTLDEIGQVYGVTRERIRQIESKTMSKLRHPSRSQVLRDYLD
Chain of Mycobacterium tuberculosis RNA polymerase (P9WGY7 whole entry, the tested form may be a part): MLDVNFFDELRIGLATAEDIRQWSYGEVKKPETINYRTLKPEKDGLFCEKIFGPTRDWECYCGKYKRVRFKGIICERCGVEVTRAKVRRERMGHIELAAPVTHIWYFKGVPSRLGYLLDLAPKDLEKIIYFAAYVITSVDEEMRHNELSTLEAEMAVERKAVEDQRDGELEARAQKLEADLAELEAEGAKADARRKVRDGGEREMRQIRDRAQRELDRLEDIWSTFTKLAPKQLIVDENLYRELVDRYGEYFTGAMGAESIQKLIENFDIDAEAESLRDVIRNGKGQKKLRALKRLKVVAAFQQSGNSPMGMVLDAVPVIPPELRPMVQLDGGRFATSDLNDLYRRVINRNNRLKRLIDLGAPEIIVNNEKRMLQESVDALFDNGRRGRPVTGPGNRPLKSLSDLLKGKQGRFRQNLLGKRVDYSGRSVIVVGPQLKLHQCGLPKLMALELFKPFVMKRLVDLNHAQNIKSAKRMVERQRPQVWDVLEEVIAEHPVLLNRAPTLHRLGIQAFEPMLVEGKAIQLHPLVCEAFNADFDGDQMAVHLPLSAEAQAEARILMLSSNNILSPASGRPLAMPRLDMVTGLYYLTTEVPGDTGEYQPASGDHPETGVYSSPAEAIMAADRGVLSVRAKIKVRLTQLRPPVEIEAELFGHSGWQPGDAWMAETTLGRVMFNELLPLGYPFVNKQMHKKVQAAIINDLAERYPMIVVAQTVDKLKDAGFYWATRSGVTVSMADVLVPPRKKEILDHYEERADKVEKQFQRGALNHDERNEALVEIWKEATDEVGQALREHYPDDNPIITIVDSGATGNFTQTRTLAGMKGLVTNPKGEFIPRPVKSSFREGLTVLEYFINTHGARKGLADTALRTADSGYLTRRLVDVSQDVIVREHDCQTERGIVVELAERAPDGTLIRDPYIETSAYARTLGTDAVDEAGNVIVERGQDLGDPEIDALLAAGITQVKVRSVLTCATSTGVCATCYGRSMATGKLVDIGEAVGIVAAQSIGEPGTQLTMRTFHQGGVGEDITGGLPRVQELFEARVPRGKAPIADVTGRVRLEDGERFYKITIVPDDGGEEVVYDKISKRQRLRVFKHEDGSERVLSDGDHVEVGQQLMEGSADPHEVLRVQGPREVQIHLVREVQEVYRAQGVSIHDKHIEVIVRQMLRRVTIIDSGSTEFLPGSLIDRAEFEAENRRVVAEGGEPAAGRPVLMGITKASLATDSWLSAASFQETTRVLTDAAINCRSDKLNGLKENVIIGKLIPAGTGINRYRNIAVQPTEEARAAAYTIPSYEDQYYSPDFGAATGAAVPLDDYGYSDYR
Protocol: Run-off transcription assays with Mycobacterium tuberculosis RNA polymerase were performed using reaction mixtures containing (10 μl): 0-100 μM test compound, 75 nM Mycobacterium tuberculosis RNA polymerase core enzyme, 300 nM Mycobacterium tuberculosis σ^A, 20 nM 130 bp DNA fragment containing positions −100 to −1 of the bacteriophage […] N25 promoter followed by positions +1 to +30 of the lacUV5-15 promoter of [Mukhopadhyay, J., Kapanidis, A., Mekler, V., Kortkhonjia, E., Ebright, Y., Ebright, R. (2001) Cell 106, 453-463], 25 nM [alpha-^32P]UTP (600 Bq/pmol) for an initial 2 min at 37° C. and 100 μM [alpha-^32P]UTP (6 Bq/pmol) for a subsequent 5 min at 37° C., 100 μM ATP, 100 μM GTP, 100 μM UTP, 100 μM CTP, 40 mM Tris-HCl, pH 8.0, 80 mM NaCl, 5 mM MgCl2, 2.5 mM DTT, and 12.7% glycerol. Reactions were terminated by addition of […] 80% formamide, 10 mM EDTA, 0.04% bromophenol blue, and 0.04% xylene cyanol, followed by heating for 5 min at 90° C. Reaction products were resolved by 15% urea-PAGE, and quantified using a storage-phosphor scanner.

[6] = test system: Mycobacterium smegmatis ATCC 19420; test: Broth microdilution MIC, M. smegmatis; type: cell-based; conditions: Mycolicibacterium smegmatis
Text: as §1

[7] = test system: Mycobacterium smegmatis, Mycobacterium tuberculosis, and Mycobacterium avium; test: organism not typed; type: cell-based; conditions: read-out: MICs, inhibition of mycobacterial growth
[8] = test system: Vero E6 ATCC CRL1586 cells; test: Mammalian-cell cytotoxicity, minimal cytotoxic concentration (CellTiter96); type: cell-based
Protocol: Minimal cytotoxic concentrations (MCCs) against mammalian cells in culture were determined using Vero E6 ATCC CRL1586 cells and the CellTiter96 assay kit (Promega, Inc.). […]

[9] = test system: Mycobacterium avium ATCC 25291; test: Microplate Alamar Blue assay (MABA) MIC, M. avium; type: cell-based; conditions: ATCC25291, M. avium ATCC 25291
Text: as §2

[10] = target: Escherichia coli RNA polymerase (Escherichia coli, UniProt P0A8T7+P0A8V2); test: Analogous run-off transcription assay with Escherichia coli RNA polymerase; type: biochemical; conditions: run-off transcription assays with Escherichia coli RNA polymerase; read-out: IC50 for inhibition of Escherichia coli RNA polymerase
[11] = Inhibition of mycobacterial RNA polymerase (IC50s), radiochemical transcription assays, M. tuberculosis RNA polymerase
[12] = read-out: MIC Mycobacterium tuberculosis H37Rv
[13] = ATCC19420, M. smegmatis ATCC 19420, read-out: MIC Mycobacterium smegmatis ATCC 19420
[14] = IC50 Mycobacterium tuberculosis RNA polymerase

Compound | cross-resistance of rifampin-resistant mutants to the compound [1] | hypersensitivity of rifampin-resistant mutants to the compound [1] | spontaneous resistance rate at 2xMIC ([2]; 2xMIC) | spontaneous resistance rate at 4xMIC ([2]; 4xMIC) | spontaneous resistance rate at 8xMIC ([2]; 8xMIC) | MIC ([3]; MABA-MIC assays, read-out: Inhibition of mycobacterial growth in culture (MICs)) [µg/mL] | resistance of tested AAP1-resistant mutants ([4]; all tested AAP1-resistant mutants) [fold] | IC50 [5, 11] | MIC ([6]; ATCC19420, broth microdilution assays, M. smegmatis ATCC19420, read-out: Inhibition of mycobacterial growth in culture (MICs)) [µg/mL] | MIC ([6]; ATCC19420, read-out: MIC with wild-type rpoB and wild-type rpoC, M. smegmatis ATCC19420 wild type, reference for AAP1-resistant mutants) [µg/mL] | MIC [7] [µg/mL] | MIC [3, 12] [µg/mL] | MCC mammalian cells Vero E6 ATCC CRL1586 [8] [µg/mL] | MIC [9] [µg/mL] | cross-resistance of AAP1-resistant mutants to the compound [4] | MIC [6, 13] [µg/mL] | IC50 [10] [nM] | solubility (physchem) [µM] | IC50 [5, 14] [nM]
Cc1ccccc1NC(=O)C(Cc1ccccc1)NC(=O)c1ccccc1 (racemic) [AAP1, Nα-benzoyl-N-(2-methylphenyl)-D/L-phenylalaninamide] | No rifampin-resistant mutant was found to exhibit cross-resistance | One rifampin-resistant mutant was found to be hypersensitive | 5 × 10^−9/generation | 4 × 10^−9/generation | 5 × 10^−9/generation | 6.25 (≈ 17.4 µM) | > 60 | 680 nM | 0.39 (≈ 1.09 µM) | 0.78 (≈ 2.18 µM) |  |  |  |  |  |  |  |  | 
O=C(NC(Cc1ccccc1)C(=O)Nc1cc(F)ccc1N1CCNCC1)c1ccccc1F (racemic) [IX-214, 2-fluoro-N-(1-((5-fluoro-2-(piperazin-1-yl)phenyl)amino)-1-oxo-3-phenylpropan-2-yl)benzamide] | No rifampin-resistant mutant was found to exhibit cross-resistance |  |  |  |  |  |  |  |  |  | ≥ 0.073 | 1.56 (≈ 3.36 µM) | 7 | 1.56 (≈ 3.36 µM) | cross-resistance | 0.195 (≈ 0.42 µM) |  |  | 
Cc1ccccc1NC(=O)C(Cc1ccc(O)cc1)NC(=O)c1ccccc1 (centres unmarked) [I-13, N-(3-(4-hydroxyphenyl)-1-oxo-1-(o-tolylamino)propan-2-yl)benzamide] | No rifampin-resistant mutant was found to exhibit cross-resistance |  |  |  |  |  |  |  |  |  |  | 12.5 (≈ 33.4 µM) | 37 | 25 (≈ 66.8 µM) | cross-resistance | 0.195 (≈ 0.521 µM) |  |  | 
O=C(NC(Cc1ccccc1)C(=O)Nc1cccc2[nH]ncc12)c1ccccc1 (centres unmarked) [IX-37, N-(1-((1H-indazol-4-yl)amino)-1-oxo-3-phenylpropan-2-yl)benzamide] | No rifampin-resistant mutant was found to exhibit cross-resistance |  |  |  |  |  |  |  |  |  |  | 12.5 (≈ 32.5 µM) | 55 | 12.5 (≈ 32.5 µM) | cross-resistance | 0.195 (≈ 0.507 µM) | 10000 | > 10 | 3300
Cc1ccc(Cl)cc1NC(=O)C(Cc1ccccc1)NC(=O)c1ccccc1F (centres unmarked) [IX-55, N-(1-((5-chloro-2-methylphenyl)amino)-1-oxo-3-phenylpropan-2-yl)-2-fluorobenzamide] |  |  |  |  |  |  |  |  |  |  |  | 1.56 (≈ 3.8 µM) | 10 | 3.12 (≈ 7.61 µM) | cross-resistance | 0.39 (≈ 0.949 µM) |  |  | 470
O=C(N[C@H](Cc1ccccc1)C(=O)Nc1cc(F)ccc1N1CCNCC1)c1ccccc1F [IX-214a, (R)-2-fluoro-N-(1-((5-fluoro-2-(piperazin-1-yl)phenyl)amino)-1-oxo-3-phenylpropan-2-yl)benzamide] |  |  |  |  |  |  |  |  |  |  | ≥ 0.073 | 0.78 (≈ 1.68 µM) |  | < 0.195 |  | 0.073 (≈ 0.157 µM) |  |  | 
Cc1ccccc1C(=O)NC(Cc1ccccc1)C(=O)Nc1cc(F)ccc1N1CCNCC1 (centres unmarked) [IX-215, N-(1-((5-fluoro-2-(piperazin-1-yl)phenyl)amino)-1-oxo-3-phenylpropan-2-yl)-2-methylbenzamide] | No rifampin-resistant mutant was found to exhibit cross-resistance |  |  |  |  |  |  |  |  |  |  | 1.56 (≈ 3.39 µM) | 7 | 0.78 (≈ 1.69 µM) | cross-resistance | 0.19 (≈ 0.413 µM) |  |  | 140
O=C(NC(Cc1ccccc1)C(=O)Nc1cc(F)ccc1N1CCNCC1)c1cccs1 (centres unmarked) [IX-216, N-(1-((5-fluoro-2-(piperazin-1-yl)phenyl)amino)-1-oxo-3-phenylpropan-2-yl)thiophene-2-carboxamide] | No rifampin-resistant mutant was found to exhibit cross-resistance |  |  |  |  |  |  |  |  |  |  | 1.56 (≈ 3.45 µM) | 11 | 0.78 (≈ 1.72 µM) | cross-resistance | 0.097 (≈ 0.214 µM) |  |  | 280
O=C(N[C@H](Cc1ccccc1)C(=O)Nc1cc(Cl)ccc1N1CCNCC1)c1ccccc1F [IX-274a, (R)—N-(1-((5-chloro-2-(piperazin-1-yl)phenyl)amino)-1-oxo-3-phenylpropan-2-yl)-2-fluorobenzamide] |  |  |  |  |  |  |  | ≥ 10 nM and 10 to 74 nM |  |  | ≥ 0.073 | 0.78 (≈ 1.62 µM) |  | 0.39 (≈ 0.811 µM) |  | 0.073 (≈ 0.152 µM) |  |  | 17
Cc1ccccc1C(=O)NC(Cc1ccccc1)C(=O)Nc1cc(Cl)ccc1N1CCNCC1 (centres unmarked) [IX-275, N-(1-((5-chloro-2-(piperazin-1-yl)phenyl)amino)-1-oxo-3-phenyl-propan-2-yl)-2-methylbenzamide] |  |  |  |  |  |  |  |  |  |  |  | 1.56 (≈ 3.27 µM) | 12.5 | 0.78 (≈ 1.64 µM) | cross-resistance | 0.39 (≈ 0.818 µM) |  |  | 100
